Assay [1] concerns lipase preparation AY “Amano” 30SD. Briefly: Lipase-induced scent emission test, lipase preparation AY “Amano” 30SD. In kind it is biochemical. To be noted: GC/MS head space peak area of scent-emitting compound minus water control; 10 mg fragrance precursor + 1 g aqueous 1% lipase preparation solution. The method, then:
(§1) 10 mg of a fragrance precursor and 1 g of an aqueous 1% lipase preparation solution were put in a vial bottle and mixed and after hermetically sealing the bottle, the mixture was subjected to GC/MS analysis of the head space component to obtain a peak area of the scent-emitting compound. As a control, water was used in place of the aqueous 1% lipase preparation solution, and a peak area of the control was obtained by the same method. The scent emission amount was determined from the difference between the obtained peak area of the scent-emitting compound and the peak area of the control.
(§2) (GC/MS Measurement Conditions)
(§3) Measurement instrument: 7890GC/5975M (manufactured by Agilent Technologies) • Column: BC-WAX50 m×0.25 mm I.D. • Temperature rise: 70° C. to 220° C., 4° C./min • Split ratio: 60:1

The target in assay [2] is T1, lipase preparation Lipex 100 L (Thermomyces lanuginosus, UniProt O59952, N255R/T253R).
T1 construct: purchased Novozymes Lipex 100 L
T1 sequence (O59952 23-291 T253R/N255R): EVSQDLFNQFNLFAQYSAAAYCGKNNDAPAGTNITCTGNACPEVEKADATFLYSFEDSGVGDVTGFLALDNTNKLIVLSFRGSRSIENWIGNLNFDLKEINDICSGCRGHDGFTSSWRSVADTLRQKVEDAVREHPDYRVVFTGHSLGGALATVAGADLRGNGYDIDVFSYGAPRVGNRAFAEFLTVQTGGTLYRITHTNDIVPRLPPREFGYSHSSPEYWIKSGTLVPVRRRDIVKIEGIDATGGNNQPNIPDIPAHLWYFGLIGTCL
The assay is described as follows: Lipase-induced scent emission test, lipase preparation Lipex 100 L. It counts as biochemical. Particulars: for Scent Emission Amount: GC/MS head space peak area of scent-emitting compound minus water control, 10 mg fragrance precursor + 1 g aqueous 1% lipase preparation solution; for Scent-Emitting Compound: compound released, GC/MS of head space. The method, then: as §1, §2, §3

For assay [3], the system named is Malassezia furfur NBRC0656. Briefly: Scent emission test by microorganism, Malassezia furfur. To be noted: GC/MS head space peak area minus control culture; 10 mg fragrance precursor in 3 mL culture solution, static culture 28° C., 3 days. In kind it is cell-based. The method, then: Culture of Malassezia furfur Strain NBRC0656:
After inoculating the bacterium in Sabouraud liquid medium containing 0.1% Tween 80, static culture was performed at 28° C. for 3 days under anaerobic conditions, and 3 mL of the resulting preculture solution was transferred to a vial bottle. 10 mg of the fragrance precursor was mixed therewith and after hermetical sealing, static culture was further performed at 28° C. for 3 days.
(§4) A peak area of the scent-emitting compound was obtained by performing GC/MS analysis of the head space component included in the vial bottle containing 3 mL of a microorganism culture solution in which 10 mg of the fragrance precursor was mixed. A microorganism culture solution having not mixed therein the fragrance precursor was used as the control, and a peak area of the control was obtained by the same method. The scent emission amount was determined from the difference between the obtained peak area of the scent-emitting compound and the peak area of the control.
(§5) Measurement instrument: 7890GC/5975MSD (manufactured by Agilent Technologies) • Column: BC-WAX 50 m×0.25 mm I.D. • Temperature rise: 70° C. to 220° C., 4° C./min • Split ratio: splitless

The subject of assay [4] is Propionibacterium acnes JCM6473. The assay is described as follows: Scent emission test by microorganism, Propionibacterium acnes. Particulars: GC/MS head space peak area minus control culture; 10 mg fragrance precursor in 3 mL culture solution, static culture 28° C., 3 days. In kind it is cell-based. The method, then:
Culture of Propionibacterium acnes Strain JCM6473:
After inoculating the bacterium in GAM bouillon liquid medium containing Hemin 0.5 ppm and Menadione 0.5 ppm, static culture was performed at 28° C. for 3 days under anaerobic conditions, and 3 mL of the resulting preculture solution was transferred to a vial bottle. 10 mg of each of the fragrance precursors was mixed therewith and after hermetical sealing, static culture was further performed at 28° C. for 3 days.
as §4, §5

The test system of assay [5] is Pseudomonas aeruginosa NBRC13275. Briefly: Scent emission test by microorganism, Pseudomonas aeruginosa. It counts as cell-based. Particulars: GC/MS head space peak area minus control culture; 10 mg fragrance precursor in 3 mL culture solution, 30° C., 20 hours. The method, then: (§6) Culture of Staphylococcus aureus strain NBRC12732, Corynebacterium xerosis strain JCM1324, Pseudomonas aeruginosa strain NBRC13275, and Moraxella osloensis strain ATCC19976:
(§7) After inoculating each of bacteria in Muller-Hinton liquid medium, shaking culture was performed at 30° C. for 20 hours, and 3 mL of the resulting preculture solution was transferred to a vial bottle. 10 mg of each of the fragrance precursors was mixed therewith and after hermetical sealing, shaking culture was further performed at 30° C. for 20 hours.
as §4, §5

For assay [6], the system named is Moraxella osloensis ATCC19976. Briefly: Scent emission test by microorganism, Moraxella osloensis. It counts as cell-based. To be noted: GC/MS head space peak area minus control culture; 10 mg fragrance precursor in 3 mL culture solution, 30° C., 20 hours. The method, then:
as §6, §7, §4, §5

For assay [7], the system named is Corynebacterium xerosis JCM1324. The assay is described as follows: Scent emission test by microorganism, Corynebacterium xerosis. In kind it is cell-based. To be noted: GC/MS head space peak area minus control culture; 10 mg fragrance precursor in 3 mL culture solution, 30° C., 20 hours. The method, then:
as §6, §7, §4, §5

Assay [8] has as its system Staphylococcus aureus NBRC12732. Briefly: Scent emission test by microorganism, Staphylococcus aureus. To be noted: GC/MS head space peak area minus control culture; 10 mg fragrance precursor in 3 mL culture solution, 30° C., 20 hours. In kind it is cell-based. The method, then: as §6, §7, §4, §5

The structures appear in SMILES notation.

In the case of `CCCC(CC[C@@H]1[C@@H](C)CCCC1(C)C)OC(=O)c1ccc(OC)cc1` (stereo partly drawn) [Example 3, 1-((R,6S)-2,2,6-trimethylcyclohexyl)-3-hexanyl Anisate], the “Scent Emission Amount” value is listed as 40,373,157 in assay [1] and 40,430,750 in assay [2].
With `CC(C)=CCCC(C)CCOC(=O)Cc1ccccc1` (stereo not drawn) [citronellyl phenylacetate], the “Scent Emission Amount” value is 369,118,269 in assay [3], 292,401,763 in assay [4], 150,385,642 in assay [5] and 500,940,481 in assay [6].
Turning to `CC(C)=CCC/C(C)=C/COC(=O)Cc1ccccc1` [geranyl phenylacetate], the entries for the “Scent Emission Amount” value in assay [7] and in assay [1] were 39,033,900 and 54,842,763, respectively.
As for `CC(C)=CCC/C(C)=C/CC[C@H](C)CCOC(=O)c1ccccc1` [Example 7, (S,E)-3,7,11-trimethyl-6,10-dodecadienyl Benzoate], the “Scent Emission Amount” value in assay [1] is on record as 88,986,381.
Still for that read-out and setting: the figure for `COc1ccc(C(=O)OCC[C@@H](C)CC/C=C(\C)CCC=C(C)C)cc1` [Example 8, (S,E)-3,7,11-trimethyl-6,10-dodecadienyl Anisate] is 23,338,647; for `O=C(Cc1ccccc1)OCCc1ccccc1` [phenylethyl phenylacetate] it is 50,855,859.
For the compound `C=CCc1ccc(OC(=O)c2ccccc2)c(OC)c1` [Example 12, 4-allyl-2-methoxyphenyl benzoate], in assay [2], the “Scent Emission Amount” value was 164,744,420 and the “Scent-Emitting Compound” value is “eugenol”.
As to `O=C(OCCc1ccccc1)c1ccccc1` [phenylethyl benzoate], the “Scent Emission Amount” value in assay [1] was 96,460,830.
Regarding `COc1cc(C=O)ccc1OC(=O)c1ccccc1` [Example 13, 4-formyl-2-methoxyphenyl Benzoate], in assay [2], the “Scent Emission Amount” value is 47,188,750 and the “Scent-Emitting Compound” value is recorded as “vanillin”.
For the compound `CC(C)[C@@H]1CC[C@@H](C)C[C@H]1OC(=O)c1ccccc1` [Example 6, (1R,2S,5R)-isopropyl-5-methylcyclohexyl benzoate], in assay [1], the “Scent Emission Amount” value is on record as 82,023,336.
For the compound `C=CCCCCCCCCOC(=O)c1ccccc1` [Example 14, 9-decenyl Benzoate], the “Scent Emission Amount” value in assay [3] is on record as 304,030,021; in assay [4] it was 133,440,692; in assay [6] it was 86,274,718.
For the compound `CC(C)=CCC/C(C)=C/CC[C@H](C)CCOC(=O)/C=C/c1ccccc1` [Example 10, (S,E)-3,7,11-trimethyl-6,10-dodecadienyl Cinnamate], in assay [2], the “Scent Emission Amount” value is recorded as 19,967,420 and the “Scent-Emitting Compound” value is listed as “dihydrofarnesol”.
For `C=C(C)CCC[C@H](C)CCOC(=O)Cc1ccccc1` [rosinyl phenylacetate], the “Scent Emission Amount” value in assay [1] is recorded as 56,492,946.
Still for that read-out and setting: the figure for `O=C(C=Cc1ccccc1)OCC=Cc1ccccc1` [cinnamyl cinnamate] is 24,711,289.
In the case of `O=C(C=Cc1ccccc1)OCCc1ccccc1` [phenylethyl cinnamate], the “Scent Emission Amount” value in assay [3] is 351,450,490; in assay [4], 112,497,882; in assay [5], 247,508,719; in assay [1] it was 22,892,002; in assay [8] it was 144,750,281.
For `CC/C=C\CCOC(=O)c1ccccc1` [Example 11, (Z)-3-hexenyl Benzoate], in assay [1], the “Scent Emission Amount” value is listed as 49,663,459.
For `CC/C=C\CCOC(=O)c1ccccc1O` [(Z)-3-hexenyl salicylate], the “Scent Emission Amount” value in assay [1] is recorded as 16,933,990; in assay [8], 14,126,965.
As to `CC(C)=CCC[C@H](C)CCOC(=O)c1ccccc1` [Example 1, 3,7-dimethyl-6-octenyl benzoate], in assay [2], the “Scent Emission Amount” value is listed as 28,098,876 and the “Scent-Emitting Compound” value was “citronellol”.
As to `CC(C)=CCC/C(C)=C/COC(=O)c1ccccc1` [geranyl benzoate], the “Scent Emission Amount” value in assay [3] is listed as 121,633,184; in assay [4] it was 105,061,217; in assay [5], 117,161,311; in assay [1], 78,461,812; in assay [8], 839,961,157.

The values above are taken from patent publication US11802258B2, “Perfume precursor” (TAKASAGO INTERNATIONAL CORPORATION, priority 2017, dated 2023).
